In patent US9254331B2, “Sulforaphane stabilization” (AURIGA INTERNATIONAL, priority 2010, dated 2016):

Experiments:
[1] = allyl isothiocyanate sample treated one hour in boiling water, cited from earlier work
[2] = Description: The stability of sulforaphane was investigated in the following way: a 1% sulforaphane solution is prepared in different media to be tested. The preparation, maintained in a closed container is then thermostated at 25° C., 37° C. or 40° C. Kinetic tracking is carried out by assaying the residual sulforaphane.
The HPLC method used is the following:
Column: Discovery C18 (15 cm×4.8 mm×5 μm)
Mobile Phase: isocratic CH3CN/H2O (50/50)
Injection (10 μL) after dilution of the parent solution in the mobile phase in order to obtain a sulforaphane concentration of 1 mg/mL.
External standard: naphthalene.
1% of sulforaphane were placed per mL of solution containing diphospholipides such as for example Phosal®. The preparation, maintained in a closed container is then thermostated at 40° C. Kinetic tracking is carried out by assaying the residual sulforaphane:
1% m/m sulforaphane solutions were prepared in each anhydrous ester mentioned above. Kinetic tracking of the degradation was then carried out at 40° C. by using naphthalene as an external standard.
Kinetic tracking of the degradation was then carried out at 40° C. by using naphthalene, as an external standard.

[3] = Stabilization of isothiocyanates with ascorbic acid upon storage; details: similar study with sulforaphane
From the text: Further, it is also known how to stabilize allyl isothiocyanate with ascorbic acid.

Remark: listed apart in the source
[4] = NMR
[5] = not given; remark: listed apart in the source
[6] = mixture of isoamyl salicylate, capric/caprylic triglyceride and silicone derivative, 2% sulforaphane
[7] = cited from earlier work
[8] = after seven months, cited from earlier work
[9] = closed flask, non-inertized, exposed to light

**Q.** Which “Concentration at pH 2.7” value [1] does the source give for `C=CCSSSSCC=C` [diallyl tetrasulfide] here?
**A.** Its value is “Traces”.

**Q.** And the “Concentration at pH 7.0” value [1]?
**A.** Its value is “Traces”.

**Q.** What about the “Concentration at pH 9.0” value [1] of the same molecule?
**A.** Its value is “Traces”.

**Q.** Which “Concentration at pH 2.7” value [1] does the source give for `C=CCSSCC=C` [diallyl disulfide] here?
**A.** Its value is 8.09 mg/g.

**Q.** What about the “Concentration at pH 7.0” value [1] of the same molecule?
**A.** Its value is 11.47 mg/g.

**Q.** And the “Concentration at pH 9.0” value [1]?
**A.** The value was 12.71 mg/g.

**Q.** For `C1=CSSSC1` [4H-1,2,3-trithiin], which “Concentration at pH 2.7” value [1] is on record?
**A.** Its value is “Traces”.

**Q.** And the “Concentration at pH 7.0” value [1]?
**A.** The value was “Traces”.

**Q.** And the “Concentration at pH 9.0” value [1]?
**A.** Its value is “Traces”.

**Q.** Which “Concentration at pH 2.7” value [1] does the source give for `C1=CSSC1` [3H-1,2-dithiolene] here?
**A.** Its value is 0.13 mg/g.

**Q.** And the “Concentration at pH 7.0” value [1]?
**A.** The value was 0.17 mg/g.

**Q.** And the “Concentration at pH 9.0” value [1]?
**A.** Its value is 0.19 mg/g.

**Q.** Which results are given for `C[S+]([O-])CCCCN=C=S` (centres unmarked) [sulforaphane]?
**A.** degradation in 2-octyl-dodecanol and dimethyl isosorbide ([2]; 1% (m/m) in 2-octyl-dodecanol (Nerol 20) and dimethyl isosorbide): degraded over time; degradation in vegetable oils ([2]; 1% (m/m) in jojoba, argan and eglantine rose oils): too substantial to allow commercial use; degradation in isostearate and coco caprylate-caprate ([2]; 1% (m/m) in triethylpropane triostearate and coco caprylate-caprate CCC, 40° C.): negligible; degradation in phospholipid medium ([2]; 1% in solution containing phospholipids (Phosal), 40° C., in less than 3 days): more than 40%; degradation in anhydrous esters ([2]; 1% m/m in ester 610, methyl salicylate, isoamyl salicylate, 40° C.): negligible; loss of sulforaphane ([2]; 1% solution in water, 40° C., after 2 days): 10%; remaining fraction of initial content ([2]; 1% solution in water, 40° C., after 10 days): 50%; degradation in cosmetic formulation ([2]; 2% (m/m) in isoamyl salicylate, capric/caprylic triglyceride and silicone derivative, 6 months at 40° C.): 3-5%; degradation in galenic formulation ([2]; 2% sulforaphane, 2 anhydrous esters and methylpolysiloxane A or B): no degradation is observed; time after which residual sulforaphane begins to fall ([2]; antioxidant hydro-alcoholic medium, 25° C.): 1 days; remaining fraction of initial amount ([2]; antioxidant hydro-alcoholic medium, 37° C., in less than 7 days): no more than 50%; degradation trend in ethanol ([2]; ethanol, 40° C., early days, coupling compound with ethanol formed): very dearly marked; degradation in tocopheryl acetate ([2]; tocopheryl acetate): no significant degradation; stabilization of sulforaphane by ascorbic acid [3]: not able to stabilize; product degraded into 3-butenylisothiocyanate on injection in gas chromatography (thermostated injector at 250° C.): 80%; degradation when injected directly onto the column (without passing through the injector): no degradation peak is observed; degradation on heating with reflux in chloroform ([4]; 24 hour reflux): did not either show any degradation; stability in solution in DMSO [4, 9]: stable for at least one week; stability in solution in chloroform [4, 9]: stable for at least one week; solubility in argan oil ([5]; argan oil): ~2%; solubility in eglantine rose oil ([5]; eglantine rose oil): ~3.5%; solubility in anhydrous esters ([5]; ester 610, methyl salicylate, isoamyl salicylate (Example 1)): > 6 % (m/m); solubility in jojoba oil ([5]; jojoba oil): about 0.5 % (m/m); solubilization in cosmetic formulation ([5]; mixture of isoamyl salicylate, capric/caprylic triglyceride and silicone derivative): 2%; solubility in pure anhydrous esters ([5]; triethylpropane triostearate, coco caprylate-caprate (Example 4)): > 6 % (m/m); penetration into the skin [6]: good penetration into the skin; degradation under accelerated versus normal ageing conditions ([7]; 50% of acacia gum, 40° C./75% humidity versus 25° C./60% humidity): twice more significant; degradation with 70% gum arabic at 25° C. ([7]; 70% gum arabic, 25° C., first week, then relatively stable): slight degradation; degradation with 70% gum arabic ([7]; 70% gum arabic, after one month, 40° C.): ≤ 30%; stabilization with 50% of acacia gum ([7]; sample having 50% of acacia gum): does not exhibit any particular stabilization; degradation with less suitable cyclodextrins ([8]; less suitable, not very stabilizing cyclodextrins): up to 50%; degradation with α-cyclodextrins ([8]; α-cyclodextrins): less than 10%

**Q.** For `C=CCSC#N` [allyl thiocyanate], which “Concentration at pH 2.7” value [1] is on record?
**A.** The value was 9.21 mg/g.

**Q.** What about the “Concentration at pH 7.0” value [1] of the same molecule?
**A.** The value was 13.84 mg/g.

**Q.** What about the “Concentration at pH 9.0” value [1] of the same molecule?
**A.** Its value is 12.32 mg/g.

**Q.** What does the source list for `C=CCN=C=S` [allyl isothiocyanate, reference compound]?
**A.** Concentration at pH 2.7 [1]: 379.06 mg/g; Concentration at pH 7.0 [1]: 290.27 mg/g; Concentration at pH 9.0 [1]: 270.46 mg/g

**Q.** Which results are given for `C=CCSSSCC=C` [diallyl trisulfide]?
**A.** Concentration at pH 2.7 [1]: 10.31 mg/g; Concentration at pH 7.0 [1]: 13.63 mg/g; Concentration at pH 9.0 [1]: 14.11 mg/g

**Q.** For `CC1CSSSS1` (centres unmarked) [5-methyl-1,2,3,4-tetrathiane], which “Concentration at pH 2.7” value [1] is on record?
**A.** Its value is 0.01 mg/g.

**Q.** And the “Concentration at pH 7.0” value [1]?
**A.** Its value is 0.02 mg/g.

**Q.** What about the “Concentration at pH 9.0” value [1] of the same molecule?
**A.** The value was 0.03 mg/g.

**Q.** For `C=CCSCC=C` [diallyl sulfide], which “Concentration at pH 2.7” value [1] is on record?
**A.** The value was 13.09 mg/g.

**Q.** What about the “Concentration at pH 7.0” value [1] of the same molecule?
**A.** Its value is 22.16 mg/g.

**Q.** And the “Concentration at pH 9.0” value [1]?
**A.** Its value is 26.40 mg/g.

**Q.** Which “Concentration at pH 2.7” value [1] does the source give for `C=CC1SC=CCS1` (centres unmarked) [2-vinyl-4-1,3-dithiin] here?
**A.** Its value is “Traces”.

**Q.** What about the “Concentration at pH 7.0” value [1] of the same molecule?
**A.** The value was “Traces”.

**Q.** What about the “Concentration at pH 9.0” value [1] of the same molecule?
**A.** The value was “Traces”.
